# Measurements as given in PMC6368403, “Identification of a bilirubin receptor that may mediate a component of cholestatic itch” (eLife, 2019).
# “And” between values parts separate entries of the source, which are not always exact repeats. Identical values can stand only once.
# How the values were obtained:
# [1] = test system: murine peritoneal mast cells; experiment: Ca2+ imaging of murine peritoneal mast cells; assay type: cell-based, mouse; details: 100 µM bilirubin
# Procedure: (§1) All cultured cells were maintained in DMEM supplemented with 10% FBS and 1% Penicillin/Streptomycin at 37°C, 5% CO2. All data included were generated from cells tested for mycoplasma and found to be negative. Cells were imaged in calcium imaging buffer (CIB; 10 mM HEPES, 1.2 mM NaHCO3, 130 mM NaCl, 3 mM KCl, 2.5 mM CaCl2, 0.6 mM MgCl2, 20 mM glucose, and 20 mM sucrose at pH 7.4 and 290–300 mOsm). To monitor changes in intracellular [Ca^2+] ([Ca^2+]i), cells were loaded with either Fura 2-AM (HEK293 cells) or Fluo 4-AM (DRG neurons and mast cells) for 30 min in the dark at 37°C in CIB just prior to imaging. With Fura 2-AM, emission at 510 nm was monitored from excitation at both 340 nm and 380 nm. With Fluo 4-AM, emission at 520 nm was monitored from excitation at 488 nm. Cells were identified as responding if the intracellular [Ca^2+] rose by either 50% compared to baseline or 50% compared to the [Ca^2+]i change assayed during addition of 50 mM KCl (neurons only). Damaged, detached, high-baseline, and motion-activated cells were excluded from analysis.
# Mast cells were purified as described and plated onto glass coverslips coated with […] fibronectin and allowed to recover for 2 hr at 37°C. Cells were then loaded with Fluo-4 AM.
# Adult male mice 8–12 weeks of age were sacrificed through CO2 inhalation. […]
# DRG neurons = experiment: Ca2+ imaging of cultured DRG neurons; assay type: cell-based, mouse; details: for Percent activated neurons: 50 µM bilirubin (Fig 3H)
# Procedure: as §1, with “All data included were generated from cells tested for mycoplasma and found to be negative.” left out
# DRGs were incubated with Fluo-4 AM 24 hr after dissociation (native genotype) or 48 hr after dissociation (virally transduced). Unless otherwise noted, cells were imaged for 20 seconds to establish a baseline before compounds were added. After 30 s, a 2 min wash was applied before addition of another substances. At the end of every imaging trial, 50 mM KCl was added as a positive control. […] For ruthenium red inhibitor experiments, neurons were incubated with 10 µM ruthenium red for 5 min prior to imaging. Percentage activated was determined as earlier described.
# DRG neurons from all spinal levels were collected in cold DH10 media (90% Dulbecco’s modified Eagle’s medium (DMEM)/F-12, 10% FBS, penicillin (100 U/mL), and streptomycin (100 μg/mL)). DRGs were digested with a dispase (5 mg/ml)/collagenase type I (1 mg/ml) enzyme mixture at 37°C for 45 min. After trituration, cells were spun at 300 g and re-suspended in DH10 before being plated on glass coverslips coated with poly-D-lysine (0.5 mg/ml) and laminin (10 μg/ml, Invitrogen). DRGs were cultured with DH10 supplemented with 50 ng/mL NGF at 37°C.
# MRGPRX4 = biological target: T1, MRGPRX4 (Homo sapiens, UniProt Q96LA9); experiment: [35S]GTPγS binding to MRGPRX4 membrane complexes; assay type: biochemical; details: 50 μM bilirubin
# T1 construct: expressed in transfected cells
# Procedure: (§2) MRGPR activation was determined by measuring binding of a radiolabelled and non-hydrolyzable form of GTP, [^35S]guanosine-5’-(γ-thio)triphosphate ([^35S]GTPγS) as previously described ([Vasavda et al., 2017]). Briefly, 10 µg of crude membrane fractions were diluted into 175 µL assay buffer (50 mM HEPES, 5 mM MgCl2, 100 mM NaCl, 1 mM EDTA, 0.1% […]) supplemented with 10 µM GDP and incubated at room temperature for 5 min. Membranes were then incubated an additional 1 min in a final volume of 199 μL assay buffer supplemented with 50 μM bilirubin. Samples were then brought to 200 μL with the addition of 10 nM [^35S]GTPγS. Samples were incubated for 2 hr at 4°C with gentle agitation. The experiment was terminated by rapid filtration onto GF/B filters and washed three times with wash buffer (50 mM Tris-HCl, 5 mM MgCl2, and 50 mM NaCl at pH 7.4). Filters were then immersed in scintillation cocktail and counted. Nonspecific binding was determined by competition with 10 μM unlabelled GTPγS. GTPγS binding assays were performed as two independent experiments, in triplicate.
# MRGPRA1 = biological target: T2, MRGPRA1 (Mus musculus, UniProt Q91WW5); experiment: [35S]GTPγS binding to MRGPRA1 membrane complexes; assay type: biochemical; details: 50 μM bilirubin
# T2 construct: expressed in transfected cells
# T2 sequence (Q91WW5 1-304): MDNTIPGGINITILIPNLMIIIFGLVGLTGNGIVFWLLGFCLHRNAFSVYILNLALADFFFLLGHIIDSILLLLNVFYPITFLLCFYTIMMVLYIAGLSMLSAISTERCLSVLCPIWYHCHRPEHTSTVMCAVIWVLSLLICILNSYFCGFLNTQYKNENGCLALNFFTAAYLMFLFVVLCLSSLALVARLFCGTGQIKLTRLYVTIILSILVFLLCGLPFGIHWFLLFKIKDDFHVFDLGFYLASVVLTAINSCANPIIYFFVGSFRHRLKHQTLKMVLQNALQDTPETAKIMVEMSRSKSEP
# Procedure: as §2
# T1 sequence (Q96LA9 whole entry): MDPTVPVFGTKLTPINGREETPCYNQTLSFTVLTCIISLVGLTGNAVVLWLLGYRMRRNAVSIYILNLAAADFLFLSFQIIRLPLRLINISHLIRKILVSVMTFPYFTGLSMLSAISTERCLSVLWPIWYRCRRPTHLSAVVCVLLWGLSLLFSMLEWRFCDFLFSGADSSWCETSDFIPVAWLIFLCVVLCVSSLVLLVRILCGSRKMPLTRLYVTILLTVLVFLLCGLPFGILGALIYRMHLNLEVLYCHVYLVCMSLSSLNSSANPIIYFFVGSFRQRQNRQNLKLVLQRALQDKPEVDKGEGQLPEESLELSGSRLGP
smiles,measurement,setting,value
"C=CC1=C(C)/C(=C/c2[nH]c(Cc3[nH]c(/C=C4\NC(=O)C(C)=C4C=C)c(C)c3CCC(=O)O)c(CCC(=O)O)c2C)NC1=O [bilirubin, bilirubin IXα]",Calcium response of peritoneal mast cells,[1],did not elicit a calcium response
same,Percent activated neurons,DRG neurons; A1 KO DRG,1.8%
same,Percent activated neurons,DRG neurons; Mrgpr-cluster KO DRG,1.9%
same,Percent activated A3+ neurons,"DRG neurons; Tg(Mrgpra3-Cre);lsl-tdTomato neurons, 50 µM bilirubin (Fig 4D)",51.4%
same,Percent activated neurons,DRG neurons; WT DRG,approximately 5%
same,Percent activated neurons,"DRG neurons; WT DRG, listed as Bilirubin",5.43%
same,GTP binding to MRGPRX4 membrane complexes,MRGPRX4,increased GTP binding
same,[35S]GTPγS binding,MRGPRX4; MRGPRX4 membrane complexes (Fig 2K),175 and 229 and 223
same,GTP binding to MRGPRA1 membrane complexes,MRGPRA1,increased GTP binding
same,[35S]GTPγS binding,MRGPRA1; MRGPRA1 membrane complexes (Fig 2K),197 and 184 and 159
